This is an account of results in US20250026721A1, “COMPOUNDS AND METHODS FOR MODULATING RAS-PI3K” (Vividion Therapeutics, Inc., priority 2023, published 2025).

What is called pIC50 is −log10 of the IC50, conventionally taken in molar units. A high value points to a low IC50.

pIC50: −log10 of the molar value.

The target in this experiment is T1, PIK3CA_C242 (Homo sapiens, UniProt P42336).
T1 construct: endogenous in cells; host or cells: Jurkat cell lysate
T1 sequence (P42336 whole entry): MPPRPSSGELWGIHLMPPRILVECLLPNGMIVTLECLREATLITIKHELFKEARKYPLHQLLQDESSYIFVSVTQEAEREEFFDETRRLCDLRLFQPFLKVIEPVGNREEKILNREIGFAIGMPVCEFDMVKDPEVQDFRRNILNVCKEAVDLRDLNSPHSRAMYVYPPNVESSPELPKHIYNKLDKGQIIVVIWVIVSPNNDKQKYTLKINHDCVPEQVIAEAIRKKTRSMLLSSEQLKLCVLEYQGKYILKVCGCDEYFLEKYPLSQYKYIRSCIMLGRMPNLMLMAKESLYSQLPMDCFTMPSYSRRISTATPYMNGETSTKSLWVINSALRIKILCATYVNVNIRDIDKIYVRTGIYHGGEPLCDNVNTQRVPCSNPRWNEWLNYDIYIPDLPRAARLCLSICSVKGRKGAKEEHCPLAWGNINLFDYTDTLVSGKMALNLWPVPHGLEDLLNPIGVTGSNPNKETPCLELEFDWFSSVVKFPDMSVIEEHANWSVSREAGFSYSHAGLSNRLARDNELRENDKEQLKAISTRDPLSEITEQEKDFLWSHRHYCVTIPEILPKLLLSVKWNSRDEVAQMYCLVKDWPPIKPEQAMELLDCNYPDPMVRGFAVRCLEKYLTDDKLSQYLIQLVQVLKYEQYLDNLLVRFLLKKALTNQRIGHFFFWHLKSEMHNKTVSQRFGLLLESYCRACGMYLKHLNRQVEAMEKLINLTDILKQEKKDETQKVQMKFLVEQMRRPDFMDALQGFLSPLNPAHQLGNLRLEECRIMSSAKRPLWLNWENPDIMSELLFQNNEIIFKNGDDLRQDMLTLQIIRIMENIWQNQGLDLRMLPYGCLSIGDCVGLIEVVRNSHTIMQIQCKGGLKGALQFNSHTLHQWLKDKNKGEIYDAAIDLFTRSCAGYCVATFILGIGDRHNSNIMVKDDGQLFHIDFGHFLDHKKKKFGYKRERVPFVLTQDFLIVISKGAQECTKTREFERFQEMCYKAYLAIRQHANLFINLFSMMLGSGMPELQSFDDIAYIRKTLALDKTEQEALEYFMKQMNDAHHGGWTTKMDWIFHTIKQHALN
T1 sequence (P27986 whole entry partner): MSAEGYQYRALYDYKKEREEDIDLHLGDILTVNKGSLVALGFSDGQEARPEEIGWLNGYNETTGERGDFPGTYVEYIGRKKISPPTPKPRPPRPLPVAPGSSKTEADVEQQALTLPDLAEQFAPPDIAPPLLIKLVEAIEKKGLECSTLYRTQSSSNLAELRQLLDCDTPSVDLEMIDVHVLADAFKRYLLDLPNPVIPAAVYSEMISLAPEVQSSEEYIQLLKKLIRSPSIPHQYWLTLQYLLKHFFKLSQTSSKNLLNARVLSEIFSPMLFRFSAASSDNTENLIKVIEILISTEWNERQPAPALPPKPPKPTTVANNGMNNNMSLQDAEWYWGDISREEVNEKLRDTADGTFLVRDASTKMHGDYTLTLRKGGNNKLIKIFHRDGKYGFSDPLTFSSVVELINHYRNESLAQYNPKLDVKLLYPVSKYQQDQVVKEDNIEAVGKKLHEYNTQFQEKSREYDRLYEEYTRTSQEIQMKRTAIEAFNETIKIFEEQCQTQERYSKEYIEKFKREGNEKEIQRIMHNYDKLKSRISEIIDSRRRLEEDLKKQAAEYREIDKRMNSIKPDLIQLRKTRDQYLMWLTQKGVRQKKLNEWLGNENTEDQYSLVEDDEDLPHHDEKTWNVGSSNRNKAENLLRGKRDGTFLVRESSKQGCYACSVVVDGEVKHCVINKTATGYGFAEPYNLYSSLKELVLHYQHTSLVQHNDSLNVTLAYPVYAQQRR
Nature of the experiment: Proteomic TE50 (IA-DTB / TMT mass spectrometry) in Jurkat cell lysate. It is filed as binding. Conditions: 1 hour at rt, 7-point dose response. Here is the method:
Example 4. Proteomic TE50 In vitro TE50 values for PIK3CA_C242 were obtained by treating 500 μg of cell lysate generated from Jurkat cells with DMSO or compound for 1 hour at rt followed by the addition of 200 μM desthiobiotin polyethyleneoxide iodoacetamide (IA-DTB) in DMSO for one hour at rt. Compounds were serially diluted 1:5 for a total of 7 points in order to generate dose response curves. Samples were then precipitated by the addition of 8× ice cold acetone and incubated at -80° C. for two hours. Protein was then pelleted by centrifugation (4,200 RPM, 45 min, 4° C.). The pelleted material was resuspended in 9M urea, 50 mM ammonium bicarbonate and proteins were reduced and alkylated by the addition of DTT and iodoacetamide (10 and 30 mM, respectively). Following reduction and alkylation, samples were exchanged into 2M urea (Zeba spin desalting plates, Thermo Fisher) and digested with Trypsin. IA-DTB labeled peptides were isolated with streptavidin agarose resin. Enriched peptides were eluted by the addition of 50% acetonitrile (ACN) 0.1% formic acid (FA) and dried in a SpeedVac vacuum concentrator. […] Reactions were quenched by the addition of 6.5 μL of 5% hydroxylamine. Samples were then combined and desalted on a Evolute express ABN plate (Biotage, 600-0010-PX01). Targeted TMT measurements were collected using an Orbitrap Lumos Tribrid Mass Spectrometer (Thermo Scientific) coupled to an UltiMate 3000 Series Rapid Separation LC system and autosampler (Thermo Scientific Dionex). Peptides were eluted onto a custom C18 capillary analytical column (75-μm inner diameter fused silica, packed with Acclaim PepMap C18 resin; Thermo Scientific) using an Acclaim PepMap 100 (Thermo 164535) loading column, and separated at a flow rate of […]. Data were acquired using a specific MS3-based TMT method targeting the peptide containing […], +2 charge state) where MS2 peptide fragmentation is triggered upon detection of the peptide precursor ion. Subsequent MS3 analysis was then performed using pre-selected peptide fragment ions that were isolated for fragmentation using synchronous precursor selection. RAW files were converted to MZXML format and searched with the SEQUEST algorithm using the […] software package. TMT quantitation was performed with a filter requiring at least ten summed signal-to-noise (S/N) for control channels. TE50 values were calculated from 7-point dose response curves created using the reporter ion S/N for each channel.
In turn, `CN(C)c1ccc(S(=O)(=O)N2CCC(F)(C(=O)NC/C=C/C#N)CC2)c(-c2ccccc2Cl)c1` [Compound 97, (E)-1-((2′-chloro-5-(dimethylamino)-[1,1′-biphenyl]-2-yl)sulfonyl)-N-(3-cyanoallyl)-4-fluoropiperidine-4-carboxamide] gave a pIC50 of 6.43.

The compound `Cc1ccccc1-c1cc(OC(C)C)ccc1S(=O)(=O)N1CCC(F)(C(=O)N[C@H](C)/C=C\S(C)(=O)=O)CC1` [Compound 103, (R,Z)-4-fluoro-1-((5-isopropoxy-2′-methyl-[1,1′-biphenyl]-2-yl)sulfonyl)-N-(4-(methylsulfonyl)but-3-en-2-yl)piperidine-4-carboxamide] showed a pIC50 of 6.08.

As for `COc1cccc(-c2cc(N(C)C)ccc2S(=O)(=O)N2CCC(F)(C(=O)NC/C=C/S(C)(=O)=O)CC2)c1` [Compound 96, (E)-1-((5-(dimethylamino)-3′-methoxy-[1,1′-biphenyl]-2-yl)sulfonyl)-4-fluoro-N-(3-(methylsulfonyl)allyl)piperidine-4-carboxamide], the pIC50 was 6.39.

`COc1cc(-c2ccccc2Cl)c(S(=O)(=O)N2CCC(F)(C(=O)NC/C=C\C#N)CC2)cn1` [Compound 194, (Z)-1-((4-(2-chlorophenyl)-6-methoxypyridin-3-yl)sulfonyl)-N-(3-cyanoallyl)-4-fluoropiperidine-4-carboxamide] had a pIC50 of 6.57.

Compound `COc1cc(-c2ccccc2)c(S(=O)(=O)N2CCC(F)(C(=O)NC/C=C/S(C)(=O)=O)CC2)cn1` [Compound 191, (E)-4-fluoro-1-((6-methoxy-4-phenylpyridin-3-yl)sulfonyl)-N-(3-(methylsulfonyl)allyl)piperidine-4-carboxamide] showed a pIC50 of 6.02.

Compound `COc1cccc(-c2cc(Cl)cnc2S(=O)(=O)N2CCC(F)(C(=O)N[C@@H](C)/C=C\S(C)(=O)=O)CC2)c1` [Compound 200, (S,Z)-1-((5-chloro-3-(3-methoxyphenyl)pyridin-2-yl)sulfonyl)-4-fluoro-N-(4-(methylsulfonyl)but-3-en-2-yl)piperidine-4-carboxamide] gave a pIC50 of 6.10.

In turn, `CN(C)c1ccc(S(=O)(=O)N2CCC(F)(C(=O)NC/C=C/S(C)(=O)=O)CC2)c(-c2ccccc2Cl)c1` [Compound 95, (E)-1-((2′-chloro-5-(dimethylamino)-[1,1′-biphenyl]-2-yl)sulfonyl)-4-fluoro-N-(3-(methylsulfonyl)allyl)piperidine-4-carboxamide] gave a pIC50 of 7.00.

For the compound `COc1cccc(-c2cc(Cl)ccc2S(=O)(=O)N2CCC(F)(C(=O)N[C@H](C)/C=C/S(C)(=O)=O)CC2)c1` [Compound 80, (R,E)-1-((5-chloro-3′-methoxy-[1,1′-biphenyl]-2-yl)sulfonyl)-4-fluoro-N-(4-(methylsulfonyl)but-3-en-2-yl)piperidine-4-carboxamide], the pIC50 is 6.29.

In the case of `C[C@H](/C=C\S(C)(=O)=O)NC(=O)C1(F)CCN(S(=O)(=O)c2ccc(N3CCN(C(=O)OC(C)(C)C)CC3)cc2-c2ccccc2Cl)CC1` [Compound 118, tert-butyl (R,Z)-4-(2′-chloro-6-((4-fluoro-4-((4-(methylsulfonyl)but-3-en-2-yl)carbamoyl)piperidin-1-yl)sulfonyl)-[1,1′-biphenyl]-3-yl)piperazine-1-carboxylate], the pIC50 was 6.37.

`COc1cccc(-c2cc(C)ccc2S(=O)(=O)N2CCC(F)(C(=O)NC/C=C/S(C)(=O)=O)CC2)c1` [Compound 42, (E)-4-fluoro-1-((3′-methoxy-5-methyl-[1,1′-biphenyl]-2-yl)sulfonyl)-N-(3-(methylsulfonyl)allyl)piperidine-4-carboxamide] had a negative-log IC50 (pIC50) of 6.20.

Turning to `C[C@H](/C=C\S(C)(=O)=O)NC(=O)C1(F)CCN(S(=O)(=O)c2ccc(C3CN(C(=O)OC(C)(C)C)C3)cc2-c2ccccc2Cl)CC1` [Compound 99, tert-butyl (R,Z)-3-(2′-chloro-6-((4-fluoro-4-((4-(methylsulfonyl)but-3-en-2-yl)carbamoyl)piperidin-1-yl)sulfonyl)-[1,1′-biphenyl]-3-yl)azetidine-1-carboxylate], the pIC50 was 6.08.

`COc1ccc(S(=O)(=O)N2CCC(F)(C(=O)NC/C=C/S(C)(=O)=O)CC2)c(-c2ccccc2C)c1` [Compound 44, (E)-4-fluoro-1-((5-methoxy-2′-methyl-[1,1′-biphenyl]-2-yl)sulfonyl)-N-(3-(methylsulfonyl)allyl)piperidine-4-carboxamide] showed a pIC50 of 6.50.

`COc1ccc(S(=O)(=O)N2CCC(F)(C(=O)N[C@@H](C)/C=C\S(C)(=O)=O)CC2)c(-c2ccccc2Cl)c1` [Compound 11, (S,Z)-1-((2′-chloro-5-methoxy-[1,1′-biphenyl]-2-yl)sulfonyl)-4-fluoro-N-(4-(methylsulfonyl)but-3-en-2-yl)piperidine-4-carboxamide] had a pIC50 of 7.15.

The compound `COc1cccc(-c2cc(OC)ccc2S(=O)(=O)N2CCC(F)(C(=O)NC/C=C/S(C)(=O)=O)CC2)c1` [Compound 39, (E)-1-((3′,5-dimethoxy-[1,1′-biphenyl]-2-yl)sulfonyl)-4-fluoro-N-(3-(methylsulfonyl)allyl)piperidine-4-carboxamide] gave a pIC50 of 6.15.

In turn, `C[C@@H](/C=C\S(C)(=O)=O)NC(=O)C1(F)CCN(S(=O)(=O)c2ccc(Cl)cc2-c2cccc(Oc3ccccc3)c2)CC1` [Compound 267, (S,Z)-1-((5-chloro-3′-phenoxy-[1,1′-biphenyl]-2-yl)sulfonyl)-4-fluoro-N-(4-(methylsulfonyl)but-3-en-2-yl)piperidine-4-carboxamide] had a pIC50 of 6.15.

Compound `C[C@@H](/C=C\S(C)(=O)=O)NC(=O)C1(F)CCN(S(=O)(=O)c2ccc(Cl)cc2-c2ccccc2)CC1` [Compound 2, (S,Z)-1-((5-chloro-[1,1′-biphenyl]-2-yl)sulfonyl)-4-fluoro-N-(4-(methylsulfonyl)but-3-en-2-yl)piperidine-4-carboxamide] showed a pIC50 of 7.05.

Turning to `C[C@H](/C=C\S(C)(=O)=O)NC(=O)C1(F)CCN(S(=O)(=O)c2ccc(O)cc2-c2ccccc2Cl)CC1` [Compound 104, (R,Z)-1-((2′-chloro-5-hydroxy-[1,1′-biphenyl]-2-yl)sulfonyl)-4-fluoro-N-(4-(methylsulfonyl)but-3-en-2-yl)piperidine-4-carboxamide], the pIC50 is 6.21. Against the preceding compound, the pIC50 is 0.84 log units lower.

In turn, `C[C@@H](/C=C\S(C)(=O)=O)NC(=O)C1(F)CCN(S(=O)(=O)c2ccc(Cl)cc2-c2cccc(OCc3ccccc3)c2)CC1` [Compound 268, (S,Z)-1-((3′-(benzyloxy)-5-chloro-[1,1′-biphenyl]-2-yl)sulfonyl)-4-fluoro-N-(4-(methylsulfonyl)but-3-en-2-yl)piperidine-4-carboxamide] had a pIC50 of 6.45.

In turn, `COc1cccc(-c2cc(Cl)ccc2S(=O)(=O)N2CCC(F)(C(=O)NC/C=C/S(C)(=O)=O)CC2)c1` [Compound 36, (E)-1-((5-chloro-3′-methoxy-[1,1′-biphenyl]-2-yl)sulfonyl)-4-fluoro-N-(3-(methylsulfonyl)allyl)piperidine-4-carboxamide] gave a pIC50 of 6.12.

In turn, `C=Cc1ccc(S(=O)(=O)N2CCC(F)(C(=O)N[C@H](C)/C=C\S(C)(=O)=O)CC2)c(-c2ccccc2C)c1` [Compound 108, (R,Z)-4-fluoro-1-((2′-methyl-5-vinyl-[1,1′-biphenyl]-2-yl)sulfonyl)-N-(4-(methylsulfonyl)but-3-en-2-yl)piperidine-4-carboxamide] showed a pIC50 of 6.92. This pIC50 lies 0.80 log units higher than the previous one.

As to `COc1ccc(S(=O)(=O)N2CCC(F)(C(=O)N[C@H](C)/C=C\S(C)(=O)=O)CC2)c(-c2cc(F)ccc2Cl)c1` [Compound 28, (R,Z)-1-((2′-chloro-5′-fluoro-5-methoxy-[1,1′-biphenyl]-2-yl)sulfonyl)-4-fluoro-N-(4-(methylsulfonyl)but-3-en-2-yl)piperidine-4-carboxamide], the pIC50 is 6.20.

`CCc1ccc(S(=O)(=O)N2CCC(F)(C(=O)N[C@H](C)/C=C\S(C)(=O)=O)CC2)c(-c2ccccc2C)c1` [Compound 113, (R,Z)-1-((5-ethyl-2′-methyl-[1,1′-biphenyl]-2-yl)sulfonyl)-4-fluoro-N-(4-(methylsulfonyl)but-3-en-2-yl)piperidine-4-carboxamide]: the pIC50 is 6.77. This pIC50 lies 0.57 log units higher than the previous one.

With `COc1ccc(S(=O)(=O)N2CCC(F)(C(=O)NC/C=C/S(C)(=O)=O)CC2)c(-c2ccccc2Cl)c1` [Compound 43, (E)-1-((2′-chloro-5-methoxy-[1,1′-biphenyl]-2-yl)sulfonyl)-4-fluoro-N-(3-(methylsulfonyl)allyl)piperidine-4-carboxamide], the pIC50 was 6.58.
